Key:
[1] = target: T1, PfATP4 (membranes prepared from 3D7 parasites) (Plasmodium falciparum, UniProt A0A143ZZK9); assay: PfATP4 Na+ assay (membrane ATPase), 3D7 membranes; format: biochemical, P. falciparum; conditions: for effect on membrane ATPase activity (PfATP4): 2 μM, high-[Na+] (152 mM), cipargamin not present
T1 construct: The membranes were prepared from isolated trophozoite‐stage 3D7 parasites; endogenous in cells; host or cells: P. falciparum 3D7 trophozoites (membrane preparation)
Procedure: Figure 4 Dihydroquinazolinone analogs 14 and 36 (WJM062) inhibit Na^+‐ATPase activity in membranes prepared from isolated P. falciparum parasites, consistent with them being PfATP4 inhibitors. (A) The effects of dihydroquinazolinone compounds (2 μM), dihydroartemisinin (DHA; 50 nM; negative control) and 0.2 % v/v DMSO (solvent‐only control) on membrane ATPase activity under high‐[Na^+] conditions (152 mM Na^+) and low‐[Na^+] conditions (2 mM Na^+; stemming from the addition of 1 mM Na2ATP) in the presence and absence of the PfATP4 inhibitor cipargamin (50 nM). The membranes were prepared from isolated trophozoite‐stage 3D7 parasites. The Pi produced is expressed as a percentage of that measured in the 152 mM Na^+ Control. The data are from four independent experiments performed with different membrane preparations; the symbols show the data from individual experiments and the bars show the mean (+SEM). In individual experiments, the Pi produced in the 152 mM Na^+ Control varied from 66 to 96 nmol per mg (total) protein per min. A repeated measures ANOVA with a post hoc Tukey test was used to compare the (pre‐normalised) data for different compounds and conditions. For comparisons between different conditions for the same test compound (or for the Control), significant differences are shown with black asterisks. For comparisons between the Control and a compound under the same test condition, significant differences are shown with coloured asterisks (in this case, grey asterisks, as the only significant differences were between the control and the dihydroquinazolinone compounds in the 152 mM Na^+ condition). ***P<0.001. (B) Concentration‐dependence of the effects of dihydroquinazolinone compounds on PfATP4‐associated ATPase activity in membranes prepared from 3D7 parasites. The data are the mean (shown + or − SEM) obtained from four independent experiments performed with different membrane preparations, with the exception of the lowest and second‐lowest concentrations of the compounds, for which data are from two and three independent experiments, respectively. (C and D) Potency of dihydroquinazolinone compounds against PfATP4‐associated ATPase activity in membranes prepared from Dd2‐Polδ‐PfATP4^G358S parasites (open triangles) and their Dd2‐Polδ parents (closed triangles). The data are the mean (shown + or − SEM) from four (C) or three (D) independent experiments. In B−D, the Pi production measured in the low‐[Na^+] (2 mM) condition was subtracted from that measured in high‐[Na^+] (152 mM) in the presence of each of the different concentrations of dihydroquinazolinone compounds to calculate the PfATP4‐associated ATPase activity. The PfATP4‐associated ATPase activity is expressed as a percentage of that obtained for the high‐[Na^+] (152 mM) Control.
Membrane ATPase assays were performed using a PiColorLock Gold Phosphate Detection System (Innova Biosciences), essentially as described previously.[25] Membranes were prepared either from isolated 3D7 trophozoites or from isolated Dd2‐Polδ‐PfATP4^G358S [22] and Dd2‐Polδ trophozoites.[26]

[2] = target: T2, Dd2‐PfATP4^G358S (Plasmodium falciparum, UniProt A0A143ZZK9, G1128R/G358S); assay: PfATP4 Na+ assay (membrane ATPase), Dd2-Polδ-PfATP4^G358S membranes; format: biochemical, P. falciparum; conditions: membranes from Dd2-Polδ-PfATP4^G358S parasites
T2 construct: We prepared membranes from Dd2‐Polδ‐PfATP4^G358S parasites (generated previously[22]); endogenous in cells; host or cells: P. falciparum Dd2-Polδ-PfATP4^G358S trophozoites (membrane preparation)
T2 sequence (A0A143ZZK9 1-1264 G358S/G1128R): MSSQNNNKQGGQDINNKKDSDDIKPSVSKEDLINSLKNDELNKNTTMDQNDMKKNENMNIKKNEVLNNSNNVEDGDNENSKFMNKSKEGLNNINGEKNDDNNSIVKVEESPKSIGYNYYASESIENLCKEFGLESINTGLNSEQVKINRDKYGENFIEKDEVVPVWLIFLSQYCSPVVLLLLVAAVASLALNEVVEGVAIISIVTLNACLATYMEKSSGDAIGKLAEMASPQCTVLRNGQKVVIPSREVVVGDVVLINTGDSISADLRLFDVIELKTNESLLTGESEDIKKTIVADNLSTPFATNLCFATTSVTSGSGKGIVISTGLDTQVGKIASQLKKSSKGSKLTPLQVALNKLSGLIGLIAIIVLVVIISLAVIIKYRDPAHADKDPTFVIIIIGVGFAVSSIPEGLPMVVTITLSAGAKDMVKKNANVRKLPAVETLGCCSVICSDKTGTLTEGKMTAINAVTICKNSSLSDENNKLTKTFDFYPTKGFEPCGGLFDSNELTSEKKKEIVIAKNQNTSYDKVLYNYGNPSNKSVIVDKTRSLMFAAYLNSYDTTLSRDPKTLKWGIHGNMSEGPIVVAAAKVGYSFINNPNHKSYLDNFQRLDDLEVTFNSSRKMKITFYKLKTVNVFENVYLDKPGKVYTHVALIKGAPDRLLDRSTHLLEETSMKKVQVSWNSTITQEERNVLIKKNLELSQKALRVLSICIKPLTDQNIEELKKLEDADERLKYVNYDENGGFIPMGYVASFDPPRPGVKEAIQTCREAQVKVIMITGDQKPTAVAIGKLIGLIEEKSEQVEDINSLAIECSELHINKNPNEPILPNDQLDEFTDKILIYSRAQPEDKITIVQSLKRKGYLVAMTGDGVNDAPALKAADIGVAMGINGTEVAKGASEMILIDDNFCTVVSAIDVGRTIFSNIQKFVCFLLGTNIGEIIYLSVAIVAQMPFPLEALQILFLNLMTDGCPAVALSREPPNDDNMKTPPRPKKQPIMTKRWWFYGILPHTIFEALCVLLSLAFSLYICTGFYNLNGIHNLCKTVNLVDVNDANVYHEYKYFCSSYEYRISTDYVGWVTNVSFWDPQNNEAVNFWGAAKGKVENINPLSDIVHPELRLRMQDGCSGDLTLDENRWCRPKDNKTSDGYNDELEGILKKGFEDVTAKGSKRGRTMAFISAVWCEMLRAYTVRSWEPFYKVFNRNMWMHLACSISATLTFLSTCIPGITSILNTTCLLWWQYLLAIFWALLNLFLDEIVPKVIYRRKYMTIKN
Procedure: Figure 4 Dihydroquinazolinone analogs 14 and 36 (WJM062) inhibit Na^+‐ATPase activity in membranes prepared from isolated P. falciparum parasites, consistent with them being PfATP4 inhibitors. (A) The effects of dihydroquinazolinone compounds (2 μM), dihydroartemisinin (DHA; 50 nM; negative control) and 0.2 % v/v DMSO (solvent‐only control) on membrane ATPase activity under high‐[Na^+] conditions (152 mM Na^+) and low‐[Na^+] conditions (2 mM Na^+; stemming from the addition of 1 mM Na2ATP) in the presence and absence of the PfATP4 inhibitor cipargamin (50 nM). The membranes were prepared from isolated trophozoite‐stage 3D7 parasites. The Pi produced is expressed as a percentage of that measured in the 152 mM Na^+ Control. The data are from four independent experiments performed with different membrane preparations; the symbols show the data from individual experiments and the bars show the mean (+SEM). In individual experiments, the Pi produced in the 152 mM Na^+ Control varied from 66 to 96 nmol per mg (total) protein per min. A repeated measures ANOVA with a post hoc Tukey test was used to compare the (pre‐normalised) data for different compounds and conditions. […] In B−D, the Pi production measured in the low‐[Na^+] (2 mM) condition was subtracted from that measured in high‐[Na^+] […] The PfATP4‐associated ATPase activity is expressed as a percentage of that obtained for the high‐[Na^+] […]

T1 sequence (A0A143ZZK9 whole entry): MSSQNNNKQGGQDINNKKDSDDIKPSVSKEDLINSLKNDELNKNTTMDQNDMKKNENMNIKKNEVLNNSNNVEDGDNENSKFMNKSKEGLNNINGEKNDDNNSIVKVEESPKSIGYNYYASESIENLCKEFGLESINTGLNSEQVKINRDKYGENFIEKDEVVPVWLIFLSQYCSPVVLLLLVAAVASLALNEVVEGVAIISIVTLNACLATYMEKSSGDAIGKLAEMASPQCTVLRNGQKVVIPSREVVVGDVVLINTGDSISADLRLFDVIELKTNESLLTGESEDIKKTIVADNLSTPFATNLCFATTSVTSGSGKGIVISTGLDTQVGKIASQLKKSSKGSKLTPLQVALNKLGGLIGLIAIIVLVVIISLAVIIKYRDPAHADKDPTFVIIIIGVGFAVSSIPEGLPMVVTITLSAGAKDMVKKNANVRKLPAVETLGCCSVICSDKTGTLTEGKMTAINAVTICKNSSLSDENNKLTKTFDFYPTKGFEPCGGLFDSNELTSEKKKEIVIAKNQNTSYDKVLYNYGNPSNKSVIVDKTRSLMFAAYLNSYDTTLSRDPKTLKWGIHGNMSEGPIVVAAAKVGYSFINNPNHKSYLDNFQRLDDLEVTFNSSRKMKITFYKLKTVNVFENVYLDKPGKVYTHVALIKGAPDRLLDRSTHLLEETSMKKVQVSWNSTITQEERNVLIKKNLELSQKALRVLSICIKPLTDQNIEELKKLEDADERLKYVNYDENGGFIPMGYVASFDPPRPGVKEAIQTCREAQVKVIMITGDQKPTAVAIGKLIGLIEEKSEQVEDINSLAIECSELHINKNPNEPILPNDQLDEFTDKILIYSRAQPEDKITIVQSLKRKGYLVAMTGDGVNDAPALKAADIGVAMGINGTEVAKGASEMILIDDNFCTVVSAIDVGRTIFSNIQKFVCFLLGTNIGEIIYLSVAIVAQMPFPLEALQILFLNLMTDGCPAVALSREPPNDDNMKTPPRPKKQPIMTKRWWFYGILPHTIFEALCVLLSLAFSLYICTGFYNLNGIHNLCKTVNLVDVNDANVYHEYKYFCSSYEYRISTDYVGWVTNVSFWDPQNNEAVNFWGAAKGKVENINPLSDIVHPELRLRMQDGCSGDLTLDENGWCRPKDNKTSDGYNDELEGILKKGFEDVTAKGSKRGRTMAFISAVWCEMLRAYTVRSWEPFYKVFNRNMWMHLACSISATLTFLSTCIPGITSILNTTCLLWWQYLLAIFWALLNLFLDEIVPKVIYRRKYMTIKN

Row | Structure (SMILES) | EC50 [1] | effect on membrane ATPase activity (PfATP4) [1] | EC50 [2]
1 | CN1C(=O)c2ccc(Cl)cc2NC1(C)C(=O)Nc1cncc(Cl)c1 (stereo not drawn) [Compound 14, 7‐Chloro‐N‐(5‐chloro‐3‐pyridyl)‐2,3‐dimethyl‐4‐oxo‐1H‐quinazoline‐2‐carboxamide] | 7.2 nM | complete inhibition | 12.1 nM
2 | COc1cc(F)c2c(c1)NC(C)(C(=O)Nc1cncc(Cl)c1)N(C)C2=O (stereo not drawn) [Compound 36, N‐(5‐Chloropyridin‐3‐yl)‐5‐fluoro‐7‐methoxy‐2,3‐dimethyl‐4‐oxo‐1,2,3,4‐tetrahydroquinazoline‐2‐carboxamide] | 8.6 nM | complete inhibition | 11.6 nM

Reference: article PMC11648822, “Lactam Truncation Yields a Dihydroquinazolinone Scaffold with Potent Antimalarial Activity that Targets PfATP4” (Chemmedchem, 2024)
